Results: patent EP0679081B1, “PHARMACEUTICAL COMPOSITIONS FOR PREVENTION AND TREATMENT OF CANCEROUS DISEASE AND PROCESS FOR THEIR PREPARATION” (priority 1993, dated 1995)

System: Sp2/0-Ag14 mouse myeloma cells
Assay: Effect on number of viable Sp2/0-Ag14 cells in culture (trypan blue dye exclusion count)
Conditions: for number of cells as compared to the number of untreated cells: substance used alone, statement in words
Procedure: In the experiments the newest methods approved by the scientific literature were used. In case of Sp2/0-Ag14 and K562 lines, the logarithmically growing cells were harvested from the medium and resuspended in a 96-well plate used for cell culture to a final concentration of 4x10^4 Sp2/0-Ag14 cells and 2x10^4 K562 cells, respectively, in 250 µl appropriate medium per well containing the tested materials in the indicated concentrations. In case of HeLa, HEp-2 and Vero cells, the cultured cells were harvested from 75 % confluent tissue culture flasks with 0.2 % trypsin and resuspended in the appropriate medium at a density of 10^5 cells/ml. Aliquots (100 µl) were dispensed into 96-well micro plates and incubated for 24 hours. Then the medium was discarded and replaced with 250 µl fresh medium containing the tested compounds in the indicated concentrations. All kinds of cells were allowed to proliferate for 48 hours. The number of viable Sp2/0-Ag14 and K562 cells was then counted microscopically with the trypan blue dye exclusion method. The survival of HeLa, HEp-2 and Vero cells was measured by assessing the endogenous alkaline phosphatase activity of the cells. Results were evaluated using Student's t-test. Data after the mean values in the Tables and signs in the Figures mean: "standard error of mean" (SEM).
In case of L-tryptophan for example the 2-4th control experiments show the effects of 0.002; 0.006; and 0.01 % by mass, resp., of L-tryptophan alone on the number of cells.
In Table 2 the amounts of materials expressed in % by mass and multiplied by 1000 are shown, thus the numbers in the Table should read by multiplying with 10^-3; for example in Example 21 in case of L-tryptophan the number 6 means 6 x 10^-3, that is 0.006 % by mass. The conditions of the experiments were the same as before.
To help the comparability with the earlier results Sp2/0-Ag14 cells were also used and the experimental conditions were the same as before. On the vertical axis the changes of the amounts of cells expressed in the percentage of the amounts of untreated cells are shown. On the horizontal axis the changes expressed in % of the compositions (changes of the amounts of the active ingredients) are shown. […] Thus, the 80 % composition of Example 99 contains every component in an amount of 80 %.
The composition of the control mixtures was given in connection with Table 1.
As a function of time the effect of the 100 % composition of Example 103 on Sp2/0-Ag14 cells was investigated and compared to the 100 % control mixture and to untreated cells. The experimental conditions were the same as in the previous experiments except that in this case the cells were counted not only after 48 hr but also after 6; 12; 24; and 36 hr. On the vertical axis the cell number/ml is shown. On the horizontal axis the time is shown in hours.

[1] = Table 1, number of cells after 48 hr incubation, mean ± SEM, untreated cells 59.1 ±3.2
[2] = Table 2 (first part), 48 hr, untreated cells = 100 %, mean ± SEM
[3] = Table 2 (first part), number of cells after 48 hr, mean ± SEM, untreated cells 74.3 ± 3.9
[4] = Table 2 (second part), number of cells after 48 hr, mean ± SEM, untreated cells 74.3 ± 3.9

Compound | CHANGE OF THE NUMBER OF CELLS (x 10^4) [1] | IN% OF THE UNTREATED CELLS (mouse, sp2/0-ag14 cells, 48 h) [%] | IN % OF THE UN-TREATED CELLS (mouse, sp2/0-ag14 cells, 48 h) [%] | also measured
N[C@@H](Cc1c[nH]c2ccccc12)C(=O)O [Control 2, L-tryptophan] | 61.7±3.0 x 10^4 | 104.4±5.0 | – | –
N[C@@H](Cc1c[nH]c2ccccc12)C(=O)O [Control 3, L-tryptophan] | 62.6±2.0 x 10^4 | 106.0±3.4 | – | –
N[C@@H](Cc1c[nH]c2ccccc12)C(=O)O [Control 4, L-tryptophan] | 63.0±3.4 x 10^4 | 106.6±5.8 | – | –
O=CC[C@H](O)[C@H](O)CO [Control 6, 2-deoxy-D-ribose] | 59.3±2.3 x 10^4 | – | – | –
O=CC[C@H](O)[C@H](O)CO [Control 7, 2-deoxy-D-ribose] | 59.8±1.2 x 10^4 | 101.1±2.2 | – | –
O=CC[C@H](O)[C@H](O)CO [Control 8, 2-deoxy-D-ribose] | 59.0 ±3.2 x 10^4 | 99.9 ±5.9 | – | –
Nc1ncnc2nc[nH]c12 [Control 10, adenine] | 60.5±1.4 x 10^4 | 102.4±2.5 | – | –
Nc1ncnc2nc[nH]c12 [Control 11, adenine] | 58.2 ±1.8 x 10^4 | 98.5 ±3.2 | – | –
Nc1ncnc2nc[nH]c12 [Control 12, adenine] | 58.6 ± 1.5 x 10^4 | 99.1 ± 2.8 | – | –
O=C(O)CC(O)C(=O)O (stereo not shown) [Control 14, malic acid] | 58.7 ± 2.1 x 10^4 | 99.3±3.7 | – | –
O=C(O)CC(O)C(=O)O (stereo not shown) [Control 15, malic acid] | 60.4 ± 1.7 x 10^4 | 102.2 ± 3.0 | – | –
O=C(O)CC(O)C(=O)O (stereo not shown) [Control 16, malic acid] | 58.8±2.5 x 10^4 | 99.5±4.5 | – | –
O=C1O[C@H]([C@@H](O)CO)C(O)=C1O [Control 18, L-ascorbic acid] | 58.2±1.4 x 10^4 | 98.5 ±2.5 | – | –
O=C1O[C@H]([C@@H](O)CO)C(O)=C1O [Control 19, L-ascorbic acid] | 56.7±2.1 x 10^4 | 96.0±3.7 | – | –
O=C1O[C@H]([C@@H](O)CO)C(O)=C1O [Control 20, L-ascorbic acid] | 56.3 ±2.6 x 10^4 | 95.2 ±4.8 | – | –
N[C@@H](Cc1ccccc1)C(=O)O [Control 22, L-phenylalanine] | – | – | – | IN % OF THE UN-TREATED CELLS [2]: 109.4 ± 4.0%; CHANGE OF THE NUMBER OF CELLS (x 10^4) [3]: 81.3 ± 3.0 x 10^4; number of cells as compared to the number of untreated cells (48 hr): slightly increased
N=C(N)NCCC[C@H](N)C(=O)O [Control 23, L-arginine] | – | – | – | IN % OF THE UN-TREATED CELLS [2]: 103.4 ± 1.8%; CHANGE OF THE NUMBER OF CELLS (x 10^4) [3]: 76.8 ± 1.3 x 10^4; number of cells as compared to the number of untreated cells (48 hr): slightly increased
N[C@@H](Cc1c[nH]cn1)C(=O)O [Control 24, L-histidine] | – | – | 108.7 ± 2.7 | CHANGE OF THE NUMBER OF CELLS (x 10^4) [3]: 80.7 ± 2.0 x 10^4; number of cells as compared to the number of untreated cells (48 hr): slightly increased
O=C(O)CCCC[C@@H]1SC[C@@H]2NC(=O)N[C@@H]21 [Control 25, d-biotin] | – | – | 99.9 ± 3.1 | CHANGE OF THE NUMBER OF CELLS (x 10^4) [3]: 74.2 ± 2.3 x 10^4
Cc1ncc(CO)c(CO)c1O [Control 26, pyridoxine] | – | – | 91.0 ± 2.1 | CHANGE OF THE NUMBER OF CELLS (x 10^4) [3]: 67.6 ± 1.6 x 10^4
CSCC[C@H](N)C(=O)O [Control 27, L-methionine] | – | – | 98.7 ± 3.6 | CHANGE OF THE NUMBER OF CELLS (x 10^4) [3]: 73.3 ± 2.7 x 10^4
N[C@@H](Cc1ccc(O)cc1)C(=O)O [Control 28, L-tyrosine] | – | – | – | IN % OF THE UN-TREATED CELLS [2]: 94.9 ± 1.5%; CHANGE OF THE NUMBER OF CELLS (x 10^4) [3]: 70.5 ± 1.1 x 10^4
Cc1cc2nc3c(=O)[nH]c(=O)nc-3n(C[C@H](O)[C@H](O)[C@H](O)CO)c2cc1C [Control 29, riboflavin] | – | – | 103.5 ± 2.2 | CHANGE OF THE NUMBER OF CELLS (x 10^4) [3]: 76.9 ± 1.7 x 10^4; number of cells as compared to the number of untreated cells (48 hr): slightly increased
O=C[C@@H](O)[C@@H](O)[C@H](O)[C@H](O)CO [Control 30, D-mannose] | – | – | 98.4 ± 1.5 | CHANGE OF THE NUMBER OF CELLS (x 10^4) [4]: 73.1 ± 1.1 x 10^4
O=C(O)CNC(=O)c1ccccc1 [Control 31, N-benzoylglycine] | – | – | 99.8 ± 2.1 | CHANGE OF THE NUMBER OF CELLS (x 10^4) [4]: 74.2 ± 1.6 x 10^4
Cc1cc2nc3c(=O)[nH]c(=O)nc-3n(C[C@H](O)[C@H](O)[C@H](O)COP(=O)(O)O)c2cc1C [Control 32, riboflavin-5'-phosphate] | – | – | 98.9 ± 1.8 | CHANGE OF THE NUMBER OF CELLS (x 10^4) [4]: 73.5 ± 1.3 x 10^4
O=C(O)c1cc(=O)[nH]c(=O)[nH]1 [Control 33, orotic acid] | – | – | 94.2 ± 1.7 | CHANGE OF THE NUMBER OF CELLS (x 10^4) [4]: 70.0 ± 1.3 x 10^4
N[C@@H](Cc1c[nH]c2ccccc12)C(=O)O [L-tryptophan] | – | – | – | number of cells as compared to the number of untreated cells (48 hr): increased slightly
